pEC50, pIC50: −log10 of the molar value.
Target: Growth hormone secretagogue receptor type 1 (Homo sapiens, UniProt Q92847)
Test: Receptor Binding Studies

Chain of Growth hormone secretagogue receptor type 1 (Q92847 whole entry): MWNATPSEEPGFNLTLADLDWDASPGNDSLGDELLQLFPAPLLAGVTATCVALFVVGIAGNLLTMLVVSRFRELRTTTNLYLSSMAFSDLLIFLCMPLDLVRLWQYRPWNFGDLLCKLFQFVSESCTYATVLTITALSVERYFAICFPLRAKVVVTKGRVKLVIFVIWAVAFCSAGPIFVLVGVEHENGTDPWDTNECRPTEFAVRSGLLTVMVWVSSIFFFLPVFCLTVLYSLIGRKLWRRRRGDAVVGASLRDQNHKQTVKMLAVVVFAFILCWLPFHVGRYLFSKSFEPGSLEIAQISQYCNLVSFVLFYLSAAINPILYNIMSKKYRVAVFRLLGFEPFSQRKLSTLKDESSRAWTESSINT

SMILES: COc1ccc(Cn2c(CCc3c[nH]c4ccccc34)nnc2[C@@H](Cc2c[nH]c3ccccc23)NC(=O)C(C)(C)N)cc1
- Kb (pH 7.3, 25 °C): 4 nM

SMILES: COc1ccc(Cn2c(CCc3c[nH]c4ccccc34)nnc2[C@@H](Cc2c[nH]c3ccccc23)NC(=O)[C@@H]2CCCN2)c(OC)c1
- Kb (pH 7.3, 25 °C): 11 nM

SMILES: COc1ccc(Cn2c(CCc3c[nH]c4ccccc34)nnc2[C@@H](Cc2c[nH]c3ccccc23)NC(=O)C2CNCCN2)c(OC)c1 (mixture of isomers) [N-[(1R)-1-{4-[(2,4-dimethoxyphenyl)methyl]-5-[2-(1H-indol-3-yl)ethyl]-4H-1,2,4-triazol-3-yl}-2-(1H-indol-3-yl)ethyl]piperazine-2-carboxamide]
- Kb: 5 nM

SMILES: COc1ccc(Cn2c(CCc3c[nH]c4ccccc34)nnc2[C@@H](Cc2c[nH]c3ccccc23)NC(=O)CN)c(OC)c1 [2-amino-N-[(1R)-1-{4-[(2,4-dimethoxyphenyl)methyl]-5-[2-(1H-indol-3-yl)ethyl]-4H-1,2,4-triazol-3-yl}-2-(1H-indol-3-yl)ethyl]acetamide]
- Kb (pH 7.3, 25 °C): 27 nM

SMILES: COc1ccc(Cn2c(CCc3ccccc3)nnc2[C@@H](Cc2c[nH]c3ccccc23)NC(=O)CCN)cc1 [3-amino-N-[(1R)-2-(1H-indol-3-yl)-1-{4-[(4-methoxyphenyl)methyl]-5-(2-phenylethyl)-4H-1,2,4-triazol-3-yl}ethyl]propanamide]
- pEC50 (pH 7.3, 25 °C): 6.59

SMILES: COc1ccc(Cn2c(CCc3ccccc3)nnc2[C@@H](Cc2c[nH]c3ccccc23)NC(=O)[C@H]2CCCCN2)c(OC)c1 [(2R)-N-[(1R)-1-{4-[(2,4-dimethoxyphenyl)methyl]-5-(2-phenylethyl)-4H-1,2,4-triazol-3-yl}-2-(1H-indol-3-yl)ethyl]piperidine-2-carboxamide]
- pIC50: 6.87

SMILES: CCc1ccc(Cn2c(CCc3ccccc3)nnc2[C@@H](Cc2c[nH]c3ccccc23)NC(=O)[C@H]2CCCCN2)cc1 [(2R)-N-[(1R)-1-{4-[(4-ethylphenyl)methyl]-5-(2-phenylethyl)-4H-1,2,4-triazol-3-yl}-2-(1H-indol-3-yl)ethyl]piperidine-2-carboxamide]
- pIC50: 6.43

SMILES: COc1ccc(Cn2c(CCc3ccccc3)nnc2[C@@H](Cc2c[nH]c3ccccc23)NC(=O)[C@H]2CCCN2)cc1 [(2R)-N-[(1R)-2-(1H-indol-3-yl)-1-{4-[(4-methoxyphenyl)methyl]-5-(2-phenylethyl)-4H-1,2,4-triazol-3-yl}ethyl]pyrrolidine-2-carboxamide]
- pIC50 (pH 7.3, 25 °C): 7.49
- Kb (pH 7.3, 25 °C): 8 nM

SMILES: COc1ccc(Cn2c(CCc3c[nH]c4ccccc34)nnc2[C@@H](Cc2c[nH]c3ccccc23)NC(=O)[C@H]2CCCCN2)cc1 [(2R)-N-[(1R)-2-(1H-indol-3-yl)-1-{5-[2-(1H-indol-3-yl)ethyl]-4-[(4-methoxyphenyl)methyl]-4H-1,2,4-triazol-3-yl}ethyl]piperidine-2-carboxamide]
- Kb: 8 nM

SMILES: COc1ccc(Cn2c(CCc3c[nH]c4ccccc34)nnc2[C@@H](Cc2c[nH]c3ccccc23)NC(=O)[C@H]2CCCN2)cc1 [(2R)-N-[(1R)-2-(1H-indol-3-yl)-1-{5-[2-(1H-indol-3-yl)ethyl]-4-[(4-methoxyphenyl)methyl]-4H-1,2,4-triazol-3-yl}ethyl]pyrrolidine-2-carboxamide]
- Kb (pH 7.3, 25 °C): 7 nM

SMILES: CCc1ccc(Cn2c(CCc3ccccc3)nnc2[C@@H](Cc2c[nH]c3ccccc23)NC(=O)[C@H](C)N)cc1 [(2S)-2-amino-N-[(1R)-1-{4-[(4-ethylphenyl)methyl]-5-(2-phenylethyl)-4H-1,2,4-triazol-3-yl}-2-(1H-indol-3-yl)ethyl]propanamide]
- pIC50 (pH 7.3, 25 °C): 6.56

SMILES: COc1ccc(Cn2c(CCc3ccccc3)nnc2[C@@H](Cc2c[nH]c3ccccc23)NC(=O)[C@@H](N)Cc2ccccc2)cc1 [(2S)-2-amino-N-[(1R)-2-(1H-indol-3-yl)-1-{4-[(4-methoxyphenyl)methyl]-5-(2-phenylethyl)-4H-1,2,4-triazol-3-yl}ethyl]-3-phenylpropanamide]
- Kb (pH 7.3, 25 °C): 24 nM

SMILES: COc1ccc(Cn2c(CCc3ccccc3)nnc2[C@@H](Cc2c[nH]c3ccccc23)NC(=O)[C@@H]2CCCN2)c(OC)c1 [(2S)-N-[(1R)-1-{4-[(2,4-dimethoxyphenyl)methyl]-5-(2-phenylethyl)-4H-1,2,4-triazol-3-yl}-2-(1H-indol-3-yl)ethyl]pyrrolidine-2-carboxamide]
- Kb (pH 7.3, 25 °C): 32 nM

SMILES: CCc1ccc(Cn2c(CCc3ccccc3)nnc2[C@@H](Cc2c[nH]c3ccccc23)NC(=O)[C@@H]2CCCN2)cc1 [(2S)-N-[(1R)-1-{4-[(4-ethylphenyl)methyl]-5-(2-phenylethyl)-4H-1,2,4-triazol-3-yl}-2-(1H-indol-3-yl)ethyl]pyrrolidine-2-carboxamide]
- pIC50 (pH 7.3, 25 °C): 6.31

SMILES: O=C(N[C@H](Cc1c[nH]c2ccccc12)c1nnc(CCc2ccccc2)n1-c1ccccc1)[C@@H]1CCCN1 [(2S)-N-[(1R)-2-(1H-indol-3-yl)-1-[4-phenyl-5-(2-phenylethyl)-4H-1,2,4-triazol-3-yl]ethyl]pyrrolidine-2-carboxamide]
- pIC50 (pH 7.3, 25 °C): < 6.00

SMILES: COc1ccc(Cn2c(CCc3ccccc3)nnc2[C@@H](Cc2c[nH]c3ccccc23)NC(=O)[C@@H]2CCCN2)cc1 [(2S)-N-[(1R)-2-(1H-indol-3-yl)-1-{4-[(4-methoxyphenyl)methyl]-5-(2-phenylethyl)-4H-1,2,4-triazol-3-yl}ethyl]pyrrolidine-2-carboxamide]
- pIC50 (pH 7.3, 25 °C): 8.02
- Kb (pH 7.3, 25 °C): 13 nM

SMILES: COc1ccc(Cn2c(CCc3c[nH]c4ccccc34)nnc2[C@@H](Cc2c[nH]c3ccccc23)NC(=O)[C@@H]2CCCN2)cc1 [(2S)-N-[(1R)-2-(1H-indol-3-yl)-1-{5-[2-(1H-indol-3-yl)ethyl]-4-[(4-methoxyphenyl)methyl]-4H-1,2,4-triazol-3-yl}ethyl]pyrrolidine-2-carboxamide]
- Kb (pH 7.3, 25 °C): 6 nM

SMILES: COc1ccc(Cn2c(CCc3ccccc3)nnc2[C@@H](Cc2c[nH]c3ccccc23)NC(=O)[C@H]2CCCNC2)cc1 [(3S)-N-[(1R)-2-(1H-indol-3-yl)-1-{4-[(4-methoxyphenyl)methyl]-5-(2-phenylethyl)-4H-1,2,4-triazol-3-yl}ethyl]piperidine-3-carboxamide]
- Kb (pH 7.3, 25 °C): 10 nM

SMILES: COc1ccc(Cn2c(CCc3ccccc3)nnc2[C@@H](Cc2c[nH]c3ccccc23)NC(=O)[C@H](C)N)cc1 [(S)-N-((R)-1-(4-(4-Methoxybenzyl)-5-phenethyl-4H-1,2,4-triazol-3-yl)-2-(1H-indol-3-yl)ethyl)-2-aminopropanamide]
- pIC50 (pH 7.3, 25 °C): 6.95

SMILES: COc1ccc(-n2c(CCc3ccccc3)nnc2[C@@H](Cc2c[nH]c3ccccc23)NC(=O)C2CCNCC2)c(OC)c1 [N-[(1R)-1-[4-(2,4-dimethoxyphenyl)-5-(2-phenylethyl)-4H-1,2,4-triazol-3-yl]-2-(1H-indol-3-yl)ethyl]piperidine-4-carboxamide]
- pEC50: 7.85

SMILES: O=C(N[C@H](Cc1c[nH]c2ccccc12)c1nnc(CCc2ccccc2)n1Cc1ccco1)C1CCNCC1 [N-[(1R)-1-[4-(furan-2-ylmethyl)-5-(2-phenylethyl)-4H-1,2,4-triazol-3-yl]-2-(1H-indol-3-yl)ethyl]piperidine-4-carboxamide]
- pEC50: 6.74
- pIC50: 6.25

SMILES: O=C(N[C@H](Cc1c[nH]c2ccccc12)c1nnc(Cc2ccccc2)n1Cc1ccccn1)C1CCNCC1 [N-[(1R)-1-[5-benzyl-4-(pyridin-2-ylmethyl)-4H-1,2,4-triazol-3-yl]-2-(1H-indol-3-yl)ethyl]piperidine-4-carboxamide]
- pIC50: < 6.00

Reference: BindingDB's records for doi:10.1021/jm0704550 (Cnrs, 2007)
